# In PubChem BioAssay (NCI):
#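 Assay format: 96-well plates, 48-hour exposure. Definition used: TGI = concentration required for complete inhibition of growth.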
# How the values were obtained:
# Assay in all cases: inhibition of tumour cell growth, NCI panel, 48 h
# UACC-257 melanoma = system: UACC-257 melanoma
# SW-620 colon = system: SW-620 colon
# KM12 colon = system: KM12 colon
# SF-539 CNS = system: SF-539 CNS
# EKVX NSCLC = system: EKVX NSCLC
# SNB-19 CNS = system: SNB-19 CNS
# M14 melanoma = system: M14 melanoma
# HOP-62 NSCLC = system: HOP-62 NSCLC
# A498 renal = system: A498 renal
# HOP-92 NSCLC = system: HOP-92 NSCLC
# SNB-75 CNS = system: SNB-75 CNS
# T-47D breast = system: T-47D breast
# NCI/ADR-RES ovarian = system: NCI/ADR-RES ovarian
# RXF 393 renal = system: RXF 393 renal
# MDA-N = system: MDA-N
# K-562 leukemia = system: K-562 leukemia
# HS 578T breast = system: HS 578T breast
# MCF7 breast = system: MCF7 breast
# SN12C renal = system: SN12C renal
# RPMI-8226 leukemia = system: RPMI-8226 leukemia
# LOX IMVI melanoma = system: LOX IMVI melanoma
# MOLT-4 leukemia = system: MOLT-4 leukemia
# SF-295 CNS = system: SF-295 CNS
# 786-0 renal = system: 786-0 renal
# IGROV1 ovarian = system: IGROV1 ovarian
# NCI-H23 lung = system: NCI-H23 lung
# NCI-H226 lung = system: NCI-H226 lung
# HCC-2998 colon = system: HCC-2998 colon
# SK-OV-3 ovarian = system: SK-OV-3 ovarian
# SF-268 CNS = system: SF-268 CNS
# CAKI-1 renal = system: CAKI-1 renal
# PC-3 prostate = system: PC-3 prostate
# COLO 205 colon = system: COLO 205 colon
# HCT-116 colon = system: HCT-116 colon
# U251 CNS = system: U251 CNS
# CCRF-CEM leukemia = system: CCRF-CEM leukemia
# TK-10 renal = system: TK-10 renal
# MDA-MB-231 breast = system: MDA-MB-231 breast
# HL-60(TB) leukemia = system: HL-60(TB) leukemia
# SK-MEL-5 melanoma = system: SK-MEL-5 melanoma
# HT29 colon = system: HT29 colon
# SK-MEL-28 melanoma = system: SK-MEL-28 melanoma
# SK-MEL-2 melanoma = system: SK-MEL-2 melanoma
# MDA-MB-435 = system: MDA-MB-435
# ACHN renal = system: ACHN renal
# DU-145 prostate = system: DU-145 prostate
# BT-549 breast = system: BT-549 breast
# NCI-H460 lung = system: NCI-H460 lung
# SR leukemia = system: SR leukemia
# HCT-15 colon = system: HCT-15 colon
# A549 NSCLC = system: A549 NSCLC
# UACC-62 melanoma = system: UACC-62 melanoma
# UO-31 renal = system: UO-31 renal
# OVCAR-3 ovarian = system: OVCAR-3 ovarian
# OVCAR-5 ovarian = system: OVCAR-5 ovarian
# NCI-H522 lung = system: NCI-H522 lung
# OVCAR-4 ovarian = system: OVCAR-4 ovarian
# OVCAR-8 ovarian = system: OVCAR-8 ovarian
# MALME-3M melanoma = system: MALME-3M melanoma
smiles,measurement,setting,value
O=C(CCc1ccc(O)c(O)c1)NCCc1cc(O)cc(OCc2ccccc2)c1,TGI,UACC-257 melanoma,> 100 µM
same,TGI,SW-620 colon,> 100 µM
same,TGI,KM12 colon,> 100 µM
same,TGI,SF-539 CNS,> 100 µM
same,TGI,EKVX NSCLC,> 100 µM
same,TGI,SNB-19 CNS,36.7 µM
same,TGI,M14 melanoma,> 100 µM
same,TGI,HOP-62 NSCLC,> 100 µM
same,TGI,A498 renal,> 100 µM
same,TGI,HOP-92 NSCLC,> 100 µM
same,TGI,SNB-75 CNS,> 100 µM
same,TGI,T-47D breast,> 100 µM
same,TGI,NCI/ADR-RES ovarian,> 100 µM
same,TGI,RXF 393 renal,> 100 µM
same,TGI,MDA-N,58.7 µM
same,TGI,K-562 leukemia,> 100 µM
same,TGI,HS 578T breast,> 100 µM
same,TGI,MCF7 breast,> 100 µM
same,TGI,SN12C renal,> 100 µM
same,TGI,RPMI-8226 leukemia,> 100 µM
same,TGI,LOX IMVI melanoma,> 100 µM
same,TGI,MOLT-4 leukemia,> 100 µM
same,TGI,SF-295 CNS,> 100 µM
same,TGI,786-0 renal,> 100 µM
same,TGI,IGROV1 ovarian,> 100 µM
same,TGI,NCI-H23 lung,80 µM
same,TGI,NCI-H226 lung,> 100 µM
same,TGI,HCC-2998 colon,40.7 µM
same,TGI,SK-OV-3 ovarian,> 100 µM
same,TGI,SF-268 CNS,> 100 µM
same,TGI,CAKI-1 renal,> 100 µM
same,TGI,PC-3 prostate,> 100 µM
same,TGI,COLO 205 colon,> 100 µM
same,TGI,HCT-116 colon,> 100 µM
same,TGI,U251 CNS,> 100 µM
same,TGI,CCRF-CEM leukemia,75.9 µM
same,TGI,TK-10 renal,> 100 µM
same,TGI,MDA-MB-231 breast,> 100 µM
same,TGI,HL-60(TB) leukemia,38.2 µM
same,TGI,SK-MEL-5 melanoma,32.2 µM
same,TGI,HT29 colon,> 100 µM
same,TGI,SK-MEL-28 melanoma,> 100 µM
same,TGI,SK-MEL-2 melanoma,> 100 µM
same,TGI,MDA-MB-435,> 100 µM
same,TGI,ACHN renal,46.9 µM
same,TGI,DU-145 prostate,> 100 µM
same,TGI,BT-549 breast,86 µM
same,TGI,NCI-H460 lung,51.7 µM
same,TGI,SR leukemia,83.4 µM
same,TGI,HCT-15 colon,58.4 µM
same,TGI,A549 NSCLC,> 100 µM
same,TGI,UACC-62 melanoma,> 100 µM
same,TGI,UO-31 renal,71 µM
same,TGI,OVCAR-3 ovarian,> 100 µM
same,TGI,OVCAR-5 ovarian,> 100 µM
same,TGI,NCI-H522 lung,> 100 µM
CCOC(=O)c1ccc(NC(=O)O/N=C(/Cl)CC)cc1,TGI,UACC-257 melanoma,29.8 µM
same,TGI,SW-620 colon,3.36 µM
same,TGI,KM12 colon,36.1 µM
same,TGI,SF-539 CNS,33.6 µM
same,TGI,EKVX NSCLC,32.2 µM
same,TGI,OVCAR-4 ovarian,10.1 µM
same,TGI,SNB-19 CNS,45.5 µM
same,TGI,M14 melanoma,25.6 µM
same,TGI,HOP-62 NSCLC,38.1 µM
same,TGI,A498 renal,32.4 µM
same,TGI,HOP-92 NSCLC,6.77 µM
same,TGI,SNB-75 CNS,28.2 µM
same,TGI,T-47D breast,19.8 µM
same,TGI,NCI/ADR-RES ovarian,22 µM
same,TGI,RXF 393 renal,31.1 µM
same,TGI,OVCAR-8 ovarian,30.4 µM
same,TGI,MDA-N,32.6 µM
same,TGI,K-562 leukemia,3.6 µM
same,TGI,HS 578T breast,67.5 µM
same,TGI,MCF7 breast,30.9 µM
same,TGI,SN12C renal,39.3 µM
same,TGI,MALME-3M melanoma,9.14 µM
same,TGI,MOLT-4 leukemia,4.51 µM
same,TGI,SF-295 CNS,36.4 µM
same,TGI,786-0 renal,13 µM
same,TGI,IGROV1 ovarian,41.3 µM
same,TGI,NCI-H23 lung,39.9 µM
same,TGI,NCI-H226 lung,40 µM
same,TGI,HCC-2998 colon,32.6 µM
same,TGI,SK-OV-3 ovarian,31.7 µM
same,TGI,SF-268 CNS,48 µM
same,TGI,CAKI-1 renal,8.72 µM
same,TGI,PC-3 prostate,33.3 µM
same,TGI,COLO 205 colon,5.5 µM
same,TGI,HCT-116 colon,26.1 µM
same,TGI,U251 CNS,34.3 µM
same,TGI,CCRF-CEM leukemia,4.54 µM
same,TGI,TK-10 renal,> 34.4 µM
same,TGI,MDA-MB-231 breast,42.5 µM
same,TGI,HL-60(TB) leukemia,6.47 µM
same,TGI,SK-MEL-5 melanoma,29.5 µM
same,TGI,HT29 colon,44.5 µM
same,TGI,SK-MEL-28 melanoma,30.6 µM
same,TGI,SK-MEL-2 melanoma,31.9 µM
same,TGI,MDA-MB-435,34.6 µM
same,TGI,ACHN renal,22.9 µM
same,TGI,DU-145 prostate,33.5 µM
same,TGI,BT-549 breast,59.5 µM
same,TGI,NCI-H460 lung,40.9 µM
same,TGI,SR leukemia,11.6 µM
same,TGI,HCT-15 colon,28.9 µM
same,TGI,A549 NSCLC,> 60.8 µM
same,TGI,UACC-62 melanoma,45.4 µM
same,TGI,UO-31 renal,31.4 µM
same,TGI,OVCAR-3 ovarian,3.5 µM
same,TGI,OVCAR-5 ovarian,34.3 µM
same,TGI,NCI-H522 lung,6.81 µM
O=C1CC2(CCC(O)(c3ccccc3)C(C(=O)c3ccccc3)C2)C(=O)c2ccccc2N1 (configuration not stated),TGI,UACC-257 melanoma,> 100 µM
same,TGI,SW-620 colon,> 100 µM
same,TGI,SF-539 CNS,> 100 µM
same,TGI,EKVX NSCLC,> 100 µM
same,TGI,OVCAR-4 ovarian,> 100 µM
same,TGI,SNB-19 CNS,> 100 µM
same,TGI,M14 melanoma,> 100 µM
same,TGI,HOP-62 NSCLC,> 100 µM
same,TGI,A498 renal,> 100 µM
same,TGI,HOP-92 NSCLC,> 100 µM
same,TGI,SNB-75 CNS,> 100 µM
same,TGI,T-47D breast,> 100 µM
same,TGI,NCI/ADR-RES ovarian,> 100 µM
same,TGI,RXF 393 renal,> 100 µM
same,TGI,OVCAR-8 ovarian,> 100 µM
same,TGI,MDA-N,> 100 µM
same,TGI,K-562 leukemia,> 100 µM
same,TGI,HS 578T breast,> 100 µM
same,TGI,MCF7 breast,> 100 µM
same,TGI,SN12C renal,> 100 µM
same,TGI,MALME-3M melanoma,> 100 µM
same,TGI,LOX IMVI melanoma,> 100 µM
same,TGI,MOLT-4 leukemia,> 100 µM
same,TGI,SF-295 CNS,> 100 µM
same,TGI,IGROV1 ovarian,> 100 µM
same,TGI,NCI-H23 lung,> 100 µM
same,TGI,NCI-H226 lung,> 100 µM
same,TGI,HCC-2998 colon,> 100 µM
same,TGI,SK-OV-3 ovarian,> 100 µM
same,TGI,SF-268 CNS,> 100 µM
same,TGI,CAKI-1 renal,> 100 µM
same,TGI,PC-3 prostate,> 100 µM
same,TGI,COLO 205 colon,> 100 µM
same,TGI,HCT-116 colon,> 100 µM
same,TGI,U251 CNS,> 100 µM
same,TGI,CCRF-CEM leukemia,> 100 µM
same,TGI,TK-10 renal,> 100 µM
same,TGI,MDA-MB-231 breast,> 100 µM
same,TGI,HL-60(TB) leukemia,> 100 µM
same,TGI,SK-MEL-5 melanoma,> 100 µM
same,TGI,HT29 colon,> 100 µM
same,TGI,SK-MEL-28 melanoma,> 100 µM
same,TGI,SK-MEL-2 melanoma,> 100 µM
same,TGI,MDA-MB-435,> 100 µM
same,TGI,DU-145 prostate,> 100 µM
same,TGI,BT-549 breast,> 100 µM
same,TGI,NCI-H460 lung,> 100 µM
same,TGI,SR leukemia,> 100 µM
same,TGI,HCT-15 colon,> 100 µM
same,TGI,A549 NSCLC,> 100 µM
same,TGI,UACC-62 melanoma,> 100 µM
same,TGI,UO-31 renal,> 100 µM
same,TGI,OVCAR-3 ovarian,> 100 µM
same,TGI,OVCAR-5 ovarian,> 100 µM
